Data published in patent publication US20170273916A1, “METHODS FOR TREATING AND PREVENTING NEURODEGENERATIVE DISEASES” (priority 2016, published 2017).
In brackets after ≈: the same amount, converted by molar mass. Entries after “also recorded” stand apart in the source; their conditions may differ.

Assays:
[1] = test system: NGF-induced PC12 cells; test: Viability of NGF-induced PC12 cells treated with extracts and compounds (CCK-8 assay); assay type: cell-based; conditions: Rattus norvegicus, PC-12, 24 hr incubation, CCK-8, FIGS. 1A-1E, read-out: IC50 (cell viability)
Protocol: PC12 cells were cultured in RPMI 1640 medium (5% fetal bovine serum, 10% heat-inactivated horse serum, 2 mM glutamine, 50 U/mL penicillin, […] streptomycin), at 37° C., 5% CO2, subculture twice a week.
PC12 cells need to be cultured in medium containing Nerve growth factor (NGF) 2.5S, (100 ng/mL) in advance for NGF-induced neuronal differentiation.
Cell Counting Kit-8(CCK-8) allows sensitive colorimetric assays for the determination of cell viability in cell proliferation and cytotoxicity assays. Dojindo's highly water-soluble tetrazolium salt, WST-8, is reduced by dehydrogenase activities in cells to give a yellow-color formazan dye, which is soluble in the tissue culture media. The amount of the formazan dye, generated by the activities of dehydrogenases in cells, is directly proportional to the number of living cells. The detection sensitivity of CCK-8 is higher than the other tetrazolium salts such as MTT, XTT, MTS or WST-1.
To optimize the exemplary extracts (ANCA, ANCA-D) and compounds (Antrocamol LT1, LT2, LT3) concentration for NGF-induced PC12 neural model, titration experiments were performed to determine the IC50 values of extracts and compounds. 5 x 10^4 NGF-induced PC12 cells were cultured in 96-well dish for 24 hr. Then the cells were cultured in medium with 1% fetal bovine serum, 2% heat-inactivated horse serum, 2 mM glutamine, 50 U/mL penicillin, […] streptomycin RPMI 1640 medium, then various concentrations of extracts [ANCA, ANCA-D (0.064, 0.32, 1.6, 8, 40, 200 μg/mL)] and compounds [Antrocamol LT1, LT2, LT3 (0.032, 0.16, 0.8, 4, 20, 100 μg/mL) were added individually and incubated for 24 hr. After treatment, the CCK-8 solution was added to each well of plates and incubates the plates for 4 hr in the incubator. The concentration of the formazan product was determined spectrophotometrically at an absorbance wavelength 450 nm and cell viability was expressed as a percentage of the corresponding control.

[2] = test system: Aβ-induced PC12 cell model; test: Therapeutic effect on Aβ-induced PC12 AD cell model (Aβ pretreatment, then sample; CCK-8 cell viability); assay type: cell-based, rat; conditions: Aβ 24 h, then sample 24 hr; for therapeutic effect on AD cell model (inhibition of Aβ-induced damage, cell viability): FIGS. 2A-2E, concentration not given
Protocol: (§1) β-Amyloid 1-40 (Aβ) was dissolved in 0.1% (v/v) trifluoroacetic acid (TFA) in water at 10 mg/ml and stored at −20° C. as a stock solution. Af3 was diluted to 0.5 mg/ml with phosphate-buffered saline solution (PBS, without Ca2+) and aggregate at 25° C. for 48 hr before use. To investigate the therapeutic effect of extracts (ANCA, ANCA-D) and compounds (Antrocamol LT1, LT2, LT3) on Alzheimer disease (AD) cell model in vitro, cultures were pretreated with Aβ for 24 h and then exposed to freshly prepared extracts (ANCA, ANCA-D) and compounds (Antrocamol LT1, LT2, LT3) for 24 hr before cell viability measurements. In contrast, to investigate the prophylactic effect of extracts (ANCA, ANCA-D) and compounds (Antrocamol LT1, LT2, LT3) on AD cell model, cultures were pretreated with extracts (ANCA, ANCA-D) and compounds (Antrocamol LT1, LT2, LT3) for 24 h and then exposure to aggregated Aβ for 24 h before cell viability measurements. The cell viability was estimated by below formulation:
(§2) Cell viability (%)=(Sample-Blank)/(Control-Blank)×100%

[3] = test system: Aβ-induced PC12 cell model; test: Prophylactic effect on Aβ-induced PC12 AD cell model (sample pretreatment, then aggregated Aβ; CCK-8 cell viability); assay type: cell-based, rat; conditions: sample 24 h, then aggregated Aβ 24 h; for prophylactic effect on AD cell model (preventing Aβ-induced neuronal damage, cell viability): FIGS. 3A-3E, concentration not given
Protocol: as §1, §2

## COC1=C(OC)[C@H](O)[C@H](C/C=C(\C)CC/C=C(\C)CC(O)C=C(C)C)[C@@H](C)C1=O (stereo partly shown) [LT1, 4-hydroxy-5-[9-hydroxy-3,7,11-trimethyldodeca-2,6,10-trienyl]-2,3-dimethoxy-6-methyl-cyclohex-2-enone]
[1]
  IC50: 178 µg/mL (≈ 439 µM)
[2]; 25 μg/mL
  inhibitory effect on Aβ-induced damage (therapeutic): weak
[2]; 50 μg/mL
  inhibitory effect on Aβ-induced damage (therapeutic): significant inhibitory effect
[2]; 100 μg/mL
  inhibitory effect on Aβ-induced damage (therapeutic): significant inhibitory effect
[2]
  therapeutic effect on AD cell model (inhibition of Aβ-induced damage, cell viability): significantly inhibited Aβ-induced damage and improved the cell viability
[3]; 100 μg/mL, 50 μg/mL, 25 μg/mL
  prophylactic effect compared with extracts: better prophylactic effect than extracts
[3]
  prophylactic effect on AD cell model (preventing Aβ-induced neuronal damage, cell viability): significant impact in preventing

## COC1=C(OC)[C@H](OC(C)=O)[C@H](C/C=C(\C)CC/C=C(\C)CC(O)C=C(C)C)[C@@H](C)C1=O (stereo partly shown) [LT2, 4-acetoxy-5-[9-hydroxy-3,7,11-trimethyldodeca-2,6,10-trienyl]-2,3-dimethoxy-6-methyl-cyclohex-2-enone]
[1]
  IC50: 168 µg/mL (≈ 376 µM)
[2]; 25 μg/mL
  inhibitory effect on Aβ-induced damage (therapeutic): weak
[2]; 50 μg/mL
  inhibitory effect on Aβ-induced damage (therapeutic): significant inhibitory effect
[2]; 100 μg/mL
  inhibitory effect on Aβ-induced damage (therapeutic): significant inhibitory effect
[2]
  therapeutic effect on AD cell model (inhibition of Aβ-induced damage, cell viability): significantly inhibited Aβ-induced damage and improved the cell viability
[3]
  prophylactic effect on AD cell model (preventing Aβ-induced neuronal damage, cell viability): significant impact in preventing; also recorded: weak preventing effect

## COC1=C(OC)[C@H](O)[C@H](C/C=C(\C)CC/C=C(\C)C/C=C/C(C)(C)O)[C@@H](C)C1=O [LT3, (4R,5R,6R)-4-hydroxy-5-[(2E,6E,9E)-11-hydroxy-3,7,11-trimethyldodeca-2,6,9-trienyl]-2,3-dimethoxy-6-methylcyclohex-2-enone]
[1]
  IC50: 106 µg/mL (≈ 259 µM)
[2]; 25 μg/mL
  inhibitory effect on Aβ-induced damage (therapeutic): weak
[2]; 50 μg/mL
  inhibitory effect on Aβ-induced damage (therapeutic): significant inhibitory effect
[2]; 100 μg/mL
  inhibitory effect on Aβ-induced damage (therapeutic): significant inhibitory effect
[2]
  therapeutic effect on AD cell model (inhibition of Aβ-induced damage, cell viability): significantly inhibited Aβ-induced damage and improved the cell viability
[3]
  prophylactic effect on AD cell model (preventing Aβ-induced neuronal damage, cell viability): significant impact in preventing; also recorded: weak preventing effect
